“Also recorded” adds a separate entry of the source.
Legend:
ETAR = biological target: T1, ETAR (Mus musculus, UniProt Q61614); assay: Il-6 expression (RT-PCR) in calvarial osteoblasts treated with ET-1; assay type: cell-based; settings: 100 μM zibotentan pre-treatment six hours, then 10 nM ET-1 four hours
T1 construct: Murine calvarial osteoblasts were collected and cultured as previously described; endogenous in cells; host or cells: primary murine calvarial osteoblasts
T1 sequence (Q61614 21-427): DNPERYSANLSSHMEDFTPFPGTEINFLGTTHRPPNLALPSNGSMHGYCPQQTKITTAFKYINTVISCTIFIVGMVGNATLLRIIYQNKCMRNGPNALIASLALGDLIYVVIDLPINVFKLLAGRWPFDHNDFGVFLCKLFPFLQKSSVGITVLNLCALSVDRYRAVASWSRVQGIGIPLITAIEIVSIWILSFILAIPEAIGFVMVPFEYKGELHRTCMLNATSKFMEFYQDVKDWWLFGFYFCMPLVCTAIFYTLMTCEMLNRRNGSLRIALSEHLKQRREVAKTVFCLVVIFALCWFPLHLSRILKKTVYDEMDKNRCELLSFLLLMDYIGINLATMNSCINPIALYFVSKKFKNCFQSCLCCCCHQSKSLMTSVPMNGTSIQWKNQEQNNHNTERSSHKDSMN
Experimental: Calvarial osteoblasts were cultured and pre-treated with or without 100 μM zibotentan for six hours followed by treatment with or without 10 nM ET-1 for four hours. RNA has then harvested and analyzed for the expression of Il-6, a marker of ET-1 action in osteoblasts. Il-6 expression was normalized to the housekeeping gene Rpl32. Data was analyzed using one-way ANOVA followed by Tukey's multiple comparison test.
Murine calvarial osteoblasts were collected and cultured as previously described^7. Two days post-confluence, osteoblasts were treated in triplicate with or without 100 μM zibotentan for six hours. This was followed by treatment with or without 10 nM ET-1 for four hours. RNA was collected using Direct-zol™ RNA MiniPrep Plus kit (Zymo, Irvine, Calif.) according to the manufacturer's directions. RNA was then analyzed by RT-PCR using the iTaq Universal SYBR Green One-Step Kit and a C1000 Thermal Cycler with a CFX96 fluorescent real-time attachment (Bio-Rad, Hercules, Calif.) using the following primers: Il-6: F, ccg gag agg aga ctt cac ag; R, gga aat tgg ggt agg aag ga; and Rpl32: F, cag ggt gcg gag aag gtt caa ggg; R, ctt aga gga cac gtt gtg agc aat. […] Changes in mRNA concentration were determined by subtracting […] (Δ=CtIl-6−CtRpl32). […] The fold difference was calculated as 2^ε.

[1] = Body weight and adverse effects in the ARCaPM model; assay type: in vivo, athymic nude mice
Experimental: Mice body weights were measured starting at 7 days post-inoculation and continued every 2-3 days until the completion of the experiment at 152 days. Two days after inoculation, mice began to receive zibotentan or vehicle control. Due to potential adverse effects in the Zibo+Castr group, the dosing was reduced to 5 days/week starting at day 59 post inoculation. Veh=vehicle control; Zibo=zibotentan; Sham=sham surgery; Castr=castration
Forty-eight HSD athymic nude male mice were obtained from Harlan Sprague Dawley (Envigo, Indianapolis, Ind.) after undergoing castration or sham surgery. At five weeks of age, mice were anesthetized using isoflurane vaporizer anesthesia. ARCaPM prostate cancer cells were washed, resuspended in PBS, and inoculated into the left cardiac ventricle at a volume of 100 μl containing 1×10^5 cells, as previously described. Starting at seven days post-inoculation, mice were weighed every 2-3 days.
Mice were anesthetized using an isoflurane vaporizer anesthetic unit and underwent radiographic imaging using a Faxitron UltraFocus 60 Digital Radiographic Unit (Faxitron, Tucson, Ariz.) every 2-4 weeks with attention paid to the appearance of sclerotic or lytic skeletal lesions.
The mice underwent radiographic imaging every 2-4 weeks to monitor for the development of bone lesions. Mice were also monitored frequently for abnormal behavior indicating the presence of a large tumor burden. Euthanasia was performed according to pre-determined humane endpoints—15% weight loss, paralysis, skeletal fractures, or any other signs of distress. Mice were weighed every 2-3 days (FIG. 3). As expected, mice in the castration groups had less weight gain compared to the sham groups, as has been reported elsewhere.

Structure (SMILES): COc1nc(C)cnc1NS(=O)(=O)c1cccnc1-c1ccc(-c2nnco2)cc1 [zibotentan]
- Il-6 expression (marker of ET-1 action, normalized to Rpl32) (ETAR): prevented the increase in Il-6 expression; also recorded: blocks ETAR signaling
- body weight gain ([1]; Zibo+Castr group): lack of significant weight gain was more evident
- radiographic images, intestinal air ([1]; Zibo+Castr group): intestinal gas distension within the stomach and intestines
- mice that lost more than 15% of weight and were euthanized ([1]; Zibo+Castr group, 34 and 42 days post-inoculation, no tumor found): Two
- abdominal distension ([1]; Zibo+Castr group, within 2-4 weeks of treatment initiation): developed abdominal distension
- unintended consequences of zibotentan and castration ([1]; combination of zibotentan and castration): weight loss, diffuse gas distention within the stomach and intestines, and respiratory epithelial inflammation

Source: US20220218701A1, “COMPOSITIONS AND METHODS COMPRISING ENDOTHELIN A RECEPTOR ANTAGONISTS AND ANDROGEN THERAPIES” (priority 2019, published 2022)
